Source: PMC3662833 (Journal of molecular biology, 2011)

Assays:
Unmodified ASL^Lys3UUU = assay: FITC-peptide fluorescence quenching titration with ASL; assay type: binding, human; details: in words; for interaction with unmodified ASL^Lys3UUU: FITC-peptide fluorescence quenching
[1] = in words
ASL^Val3UAC-m^6A37 = assay: FITC-peptide fluorescence quenching titration with ASL; assay type: binding, E. coli; details: in words
unmodified hASL^Lys3UUU = assay: ESI-MS complex formation; assay type: binding, human; details: preliminary, data not shown, in words
E. coli ASL^Val3UAC = assay: ESI-MS complex formation; assay type: binding; details: peptide in five-fold excess, preliminary, data not shown
Peptide structure by CD = assay type: physicochemical; details: in words

## AGPVPLHSLSYYYNQ [Peptide P31, reference compound]
Unmodified ASL^Lys3UUU; control used as a baseline, ASL not specified, data not shown
  RNA binding (control peptide): non-RNA binding

## PHRQCSAPAKSCKILP [Peptide P17]
Unmodified ASL^Lys3UUU
  interaction with unmodified ASL^Lys3UUU: little to no interaction

## HRGYCRDRWNCGEYF [Peptide P15]
[1]
  solubility: lacked the solubility required of the assay

## RVTHHAFLGAHRTVG [Peptide P6]
Unmodified ASL^Lys3UUU
  interaction with unmodified ASL^Lys3UUU: little to no interaction
ASL^Val3UAC-m^6A37
  binding of ASL^Val3UAC-m^6A37: did not bind
Unmodified hASL^Lys3UUU
  RNA bound by P6: small amounts
E. coli ASL^Val3UAC
  RNA in complex with P6: 50%
Peptide structure by CD
  structure as determined by CD: lack of structure
